# Results taken from US12161631B2, “Liquid pharmaceutical formulation” (PROJECT PHARMACEUTICS GMBH, priority 2018, dated 2024).
# Read-outs that look alike come from different tables or passages of the source.
# Columns and labels:
# [1] = Stabilizer solubility study (Example 2); type: physicochemical; details: dissolved at 40° C., stored at 2° C.-5° C. over-night
# Method: The solubility of potential stabilizers to be tested for Bendamustine-HCl liquid formulation was evaluated in polypropylene glycol. The respective chemical was dissolved in water under continuous stirring at 40° C.
# [2] = formulation CaCl2 99.9 mg | PG ad 1000 mg
# Method: The purity of Bendamustine hydrochloride and quantity was determined as follows using a standard curve: • Column type: C18, 100×4.6 mm, 2.6 μm • Mobile phase: A: Water/ACN/TFA=950/50/1 v/v/v • B: Water/ACN/TFA=50/950/1 v/v/v • Column temperature: 25° C. • Autosampler temperature: 25° C. • Flow rate: 1.2 mL/min • Detection wavelength: 234 nm HPLC Gradient
# To serve as a direct reference, Bendamustine-HCl was also included in the study.
# The following compositions were prepared, filled into type 1 glass vials, closed with a rubber stopper and crimp caped. The closed vials were stored at a temperature of 40° C.
# At defined time points samples were taken and analyzed be mans of the RP-HPLC method described in Example 1.
# [3] = Dose dependent stabilization effect of calcium chloride in PEG400 (Example 8), purity and content by RP-HPLC; details: PEG400/PG and PEG400/ethanol solvent mixtures; 40° C., 8 weeks
# Method: The organic solvent systems PEG400 with a small amount of alcoholic solvents 1,2-propanediol or ethanol (10% w/w) are to be investigated.
# The following Bendamustine containing compositions were prepared. […] The preparations were filled into type 1 glass vials and stoppered with nitrogen overlay. The closed vials were stored at 40° C.:
# The purity of Bendamustine-HCl was assessed via RP-HPLC and expressed by relative main peak area. Measurements were carried out in duplicate.
# The content of Bendamustine-HCl was assessed via RP-HPLC using a 25 mg/g Bendamustine-HCl standard as reference. Standard solutions were freshly prepared for each individual sampling time point. Standard curves were recorded in duplicate at the beginning and at the end of each sequence. Samples were analyzed in duplicate.
# [4] = type: physicochemical; details: in propylene glycol and in PEG400/PG solvent mixture
# Method: The following Bendamustine containing compositions (25 mg Bendamustine/HCl in 4 g solution) were prepared, filled into type 1 glass vials.
Structure (SMILES),Purity at 40° C. as relative main peak area [%] by RP-HPLC ([2]; 0 days),Rel. content at 40° C. determined by RP-HPLC using a calibration curve ([2]; 0 days (ref. T=0)),Purity at 40° C. as relative main peak area [%] by RP-HPLC ([2]; 7 days),Rel. content at 40° C. determined by RP-HPLC using a calibration curve ([2]; 7 days (ref. T=0)),Purity at 40° C. as relative main peak area [%] by RP-HPLC ([2]; 14 days),Rel. content at 40° C. determined by RP-HPLC using a calibration curve ([2]; 14 days (ref. T=0)),Rel. content at 40° C. determined by RP-HPLC using a calibration curve ([2]; 28 days (ref. T=0)),Purity at 40° C. as relative main peak area [%] by RP-HPLC ([2]; 28 days),further results
"C[N+](C)(C)CCO.[Cl-] [Choline-HCl, choline chloride]",,,,,,,,,Outcome (stabilizer solubility) ([1]; target concentration 1.8 mol/kg): Complete dissolution
Cn1c(CCCC(=O)O)nc2cc(N(CCCl)CCCl)ccc21 [Bendamustine],99.7%,100%,98.9%,98.9%,98.4%,98.4%,95.3%,,
[Br-].[Br-].[Ca+2] [CaBr2],,,,,,,,,Outcome (stabilizer solubility) ([1]; target concentration 0.9 mol/kg): Complete dissolution
"[Ca+2].[Cl-].[Cl-] [CaCl2, calcium chloride]",,,,,,,,,"stabilizing effect on Bendamustine (discussion, in words) [3]: clear dose depending stabilizing effect"
Nc1ncn([C@@H]2O[C@H](CO)[C@@H](O)[C@H]2O)c(=O)n1 [Azacitidine],100%,,99.8%,,97.7%,,,0.0%,
CC(=O)[O-].[K+] [KAc],,,,,,,,,stabilizing effect on Bendamustine (conclusion) [4]: no significant stabilizing effect
N[C@@H](Cc1ccc(N(CCCl)CCCl)cc1)C(=O)O [Melphalan],99.8%,100%,98.1%,84.6%,97.4%,86.2%,86.5%,95.4%,
O=NN(CCCl)C(=O)NCCCl [Carmustine],95.8%,100%,2.1%,3.6%,2.0%,1.3%,1.3%,1.9%,
